How the values were obtained:
Format in all cases: cell-based
[1] = tested on: Foxo4; experiment: Western blot of pFoxo4T28 in primary mouse hepatocytes; conditions: 100 nM insulin, 6 hours
Method: (§1) The overnight-acclimated hepatocytes were washed twice with PBS (to remove any residual FBS and other additives in the TRL hepatocyte maintenance medium, pretreated with control (water) or selenium Compounds CDE (150 or 300 ppb of each selenium compound) in DMEM/F12 media supplemented with 10% fetal bovine serum (FBS) for 24 hr. These cells were then washed twice with PBS and incubated with the same dose of selenium Compounds CDE (150 or 300 ppb) in the presence or absence of insulin (10 or 100 nM, Sigma), 0.1 mM 8-CPT (Sigma) or 0.5 μM Dex (Sigma) in serum-free and glucose-free DMEM media (Invitrogen) supplemented with 20 mM lactose (Sigma) and 2 mM pyruvate (Sigma) and 15 mM HEPES (Sigma) for another 6 hours. […]
(§2) After the above described treatments, primary mouse hepatocytes were rinsed with ice-cold PBS and lysed in the ice-cold RIPA buffer containing complete proteinase and phosphatase inhibitors (Thermo-Fisher Scientific, Waltham, Mass.) on ice for 30 min Cell lysates were collected using a cell scraper and transfer pipette and then centrifuged at 12000×g for 30 min at 4° C. to remove the DNA pellet and obtain the protein extract. Protein levels in the supernatant of these cell lysates were determined using the Pierce Micro-BCA protein assay kit (Thermo Scientific-Piece Biotechnology, Rockford, Ill.) according to the manufacturer's protocol. […]

[2] = tested on: Foxo1; experiment: Western blot of pFoxo1T24 in primary mouse hepatocytes; conditions: 100 nM insulin 6 hours, or Compounds CDE both doses 24 hours + 6 hours
Method: as §1, §2

[3] = tested on: AKT; experiment: Western blot of phosphorylated Akt in primary mouse hepatocytes; conditions: 100 nM insulin 6 hours, or Compounds CDE both doses 24 hours + 6 hours
Method: as §1, §2

insulin: insulin (10 or 100 nM, Sigma) used as comparator and cotreatment
pFoxo4T28 levels [1]: barely detectable | pFoxo1T24 protein level (in words) [2]: significant increase | pAktS473 protein level (in words) [3]: significant increase

Source: patent US9642874B2, “Compositions of selenoorganic compounds and methods of use thereof” (Alltech, Inc., priority 2014, dated 2017)
